Earlier results on 63 compounds are cited in the CATMoS acute toxicity set (Mansouri et al. 2021).

The nature of the data set: rat acute oral toxicity. Particulars: in vivo.
For orientation: LD50 means the dose expected to kill half of the subjects tested. Take `O=C(Cl)CCCCCCCCC(=O)Cl`: the LD50 was 400 mg/kg.
Turning to `CC[C@H]1OC(=O)[C@H](C)[C@@H](O[C@H]2C[C@@](C)(OC)[C@@H](O)[C@H](C)O2)[C@H](C)[C@@H](O[C@@H]2O[C@H](C)C[C@H](N(C)C)[C@H]2O)[C@](C)(OC)C[C@@H](C)C(=O)[C@H](C)[C@@H](O)[C@]1(C)O`, the LD50 is 1270 mg/kg.
As to `Nc1nnc(C=Cc2ccc([N+](=O)[O-])o2)s1`, the median lethal dose (LD50) is 1880 mg/kg.
Turning to `CC1(c2ccccc2)OC(C(=O)O)=CC1=O` (stereo not drawn), the LD50 is 3000 mg/kg.
On to `COC(=O)/C(C)=C/OP(=S)(OC)OC`, for which the LD50 was 678 mg/kg.
As to `CCOC(=O)[C@H](CCc1ccccc1)N[C@@H](C)C(=O)N(CC(=O)O)C1Cc2ccccc2C1`, the LD50 was 8260 mg/kg.
For `Cc1c(N(C)C)c(=O)n(-c2ccccc2)n1C`, the 50% lethal dose (LD50) was 285 mg/kg.
Turning to `CCC(=O)c1ccc2c(c1)N(CCCN1CCN(C)CC1)c1ccccc1S2`, the median lethal dose (LD50) was 600 mg/kg.
For `c1ccc2c(c1)OCO2`, the LD50 is 580 mg/kg.
For `CCOc1ccc(C=O)cc1`, the 50% lethal dose (LD50) was 2100 mg/kg.
As to `Cc1ccc(OCC(O)CNC(C)(C)C)c2oc(=O)ccc12` (stereo not drawn), the LD50 was 676 mg/kg.
`O=C(c1ccccc1)c1ccc2n1CC[C@H]2C(=O)O`: the LD50 was 189 mg/kg.
For `O=C(C1CCCCC1)N1CC(=O)N2CCc3ccccc3C2C1` (stereo not drawn), the 50% lethal dose (LD50) is 2840 mg/kg.
Take `CC(C)(C(N)=O)c1ccccc1`: the median lethal dose (LD50) was 1650 mg/kg.
Consider `ClCc1ccc(CCl)cc1`, for which the median lethal dose (LD50) was 1280 mg/kg.
`Cc1ccc(S(=O)(=O)O)cc1`: the LD50 was 2570 mg/kg.
Regarding `CC(C)CS`, the median lethal dose (LD50) was 7170 mg/kg.
In the case of `CN(C)CCC1(c2ccccc2)C=Cc2ccccc21` (stereo not drawn), the median lethal dose (LD50) was 385 mg/kg.
For `Cc1cc(O)ccc1S(C)=O` (stereo not drawn), the 50% lethal dose (LD50) was 3500 mg/kg.
For `CCOP(=O)(OCC)SCCS(=O)CC` (stereo not drawn), the 50% lethal dose (LD50) was 2 mg/kg.
With `O=C1NC(=O)C2(c3ccc(Cl)cc3)CC12` (stereo not drawn), the 50% lethal dose (LD50) was 1550 mg/kg.
As to `C#CC(OC(=O)C1C(C=C(C)C)C1(C)C)/C(C)=C/CC` (stereo not drawn), the median lethal dose (LD50) is 1680 mg/kg.
Regarding `COC(F)(F)C(F)Cl` (stereo not drawn), the 50% lethal dose (LD50) was 5130 mg/kg.
On to `COCC(=O)O`, for which the LD50 is 1000 mg/kg.
Consider `Cc1ccc(C)c(O)c1`, for which the median lethal dose (LD50) is 444 mg/kg.
For the compound `Cc1nc2ccccc2n1Cc1ccc(Cl)cc1`, the LD50 was 2200 mg/kg.
On to `Cc1occc(=O)c1O`, for which the median lethal dose (LD50) was 1410 mg/kg.
In the case of `CCCCCCCc1ccccc1O`, the LD50 was 2750 mg/kg.
Take `CCOC(=O)/C=C/C(=O)OCC`: the LD50 was 1780 mg/kg.
Take `COC(=O)c1ccc(NC(C)=O)o1`: the LD50 is 1200 mg/kg.
`Cc1cccc(C#N)c1C`: the 50% lethal dose (LD50) is 3000 mg/kg.
As to `CCCOC(=O)OOC(=O)OCCC`, the median lethal dose (LD50) is 3400 mg/kg.
For the compound `O=C(NN1CCCC1)NS(=O)(=O)c1ccc(Cl)cc1`, the 50% lethal dose (LD50) was 4100 mg/kg.
`CCN1C=CC(=C2C(=O)c3ccccc3C2=O)C=C1`: the 50% lethal dose (LD50) is 330 mg/kg.
Regarding `C[C@H](CN1CCOCC1)C(C(=O)N1CCCC1)(c1ccccc1)c1ccccc1`, the LD50 was 71.8 mg/kg.
Consider `C#CC(C)N(C)C(=O)Nc1ccc(Cl)cc1` (stereo not drawn), for which the median lethal dose (LD50) was 1790 mg/kg.
As to `O=[N+]([O-])c1ccc(Nc2ccc(O)cc2)c([N+](=O)[O-])c1`, the LD50 was 15600 mg/kg.
With `C=CCOCC1CO1` (stereo not drawn), the LD50 is 1600 mg/kg.
On to `CCN(CC)CCN(CCN(CC)CC)n1cc(-c2ccccc2)c2ccccc21`, for which the LD50 was 800 mg/kg.
`Cc1cc(C)[nH]n1`: the LD50 is 1720 mg/kg.
On to `CC(C)=CCCC(C)CCOC=O` (stereo not drawn), for which the LD50 is 8400 mg/kg.
Take `S=C1NCCS1`: the median lethal dose (LD50) was 300 mg/kg.
Regarding `O=C1CNC(=S)N1`, the LD50 was 420 mg/kg.
With `c1ccc2c(C(CCN3CCOCC3)CCN3CCOCC3)cccc2c1`, the LD50 was 708 mg/kg.
Take `C=CCN(CC=C)N=O`: the LD50 is 800 mg/kg.
Take `CCCCCN(C)N=O`: the LD50 was 120 mg/kg.
In the case of `CCCCOCCOC(=O)CCCCC(=O)OCCOCCCC`, the LD50 was 1100 mg/kg.
Take `C#CCOc1ccc(N)cc1C(=O)NCCCC`: the LD50 was 864 mg/kg.
Regarding `CON(C)C(=O)Nc1ccc(Br)c(Cl)c1`, the 50% lethal dose (LD50) is 2150 mg/kg.
Take `CC1(C)S[C@@H]2[C@H](NC(=O)C(C(=O)Oc3ccccc3)c3ccccc3)C(=O)N2[C@H]1C(=O)O` (stereo partly drawn): the LD50 is 10000 mg/kg.
For `COP(=S)(OC)SC1CCSc2ccccc21` (stereo not drawn), the LD50 is 5 mg/kg.
Consider `CCCCOC(=O)C1CCC(C(=O)OCCCC)C1` (stereo not drawn), for which the LD50 was 6500 mg/kg.
On to `CN(CC#N)N=O`, for which the LD50 is 45 mg/kg.
In the case of `C=COCCSCCCC`, the LD50 was 2830 mg/kg.
On to `CC(=O)OC(C)CC(C)C` (stereo not drawn), for which the LD50 was 6160 mg/kg.
Consider `COC(=O)c1c(C(F)F)nc(C(F)(F)F)c(C(=O)OC)c1CC(C)C`, for which the 50% lethal dose (LD50) is 1420 mg/kg.
Turning to `CC=CCO`, the median lethal dose (LD50) was 793 mg/kg.
Turning to `CCc1cc2c(s1)-n1c(C)nnc1CN=C2c1ccccc1Cl`, the LD50 is 3510 mg/kg.
With `CCCCNCC1COc2cccc(OCC)c2O1` (stereo not drawn), the median lethal dose (LD50) is 348 mg/kg.
Regarding `CC(C)(C)c1cc(O)ccc1O`, the LD50 was 700 mg/kg.
On to `NC(=O)NO`, for which the LD50 was 5760 mg/kg.
With `O=P(O)(O)Oc1c(Br)cc(Br)cc1-c1cc(Br)cc(Br)c1O`, the 50% lethal dose (LD50) was 142 mg/kg.
For the compound `CCN(CC)CCCNc1c2ccccc2nc2cccc([N+](=O)[O-])c12`, the 50% lethal dose (LD50) is 63.2 mg/kg.
